This experiment addresses aryl hydrocarbon receptor (AhR) (Mus musculus (Mouse), UniProt P30561). Put plainly: AhR ligand screening: AhRE-luciferase reporter in transfected Hepa1 cells. The class given is cell-based. The following applies: for Fold @ 1 nM: fold change of luciferase expression at 1 nM test compound relative to vehicle (0.1% DMSO); for Fold @ 100 nM: fold change of luciferase expression at 100 nM test compound relative to vehicle (0.1% DMSO); for Fold @ 10 uM: fold change of luciferase expression at 10 uM test compound relative to vehicle (0.1% DMSO); for Fold relative to benchmark @ 100 nM: luciferase expression at 100 nM test compound relative to 100 nM benchmark compound 11-cl-BBQ. The gist of the method:
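Mouse Hepa1 cells transfected with an AhRE-luciferase reporter were plated at 1×10^4 cells/well, grown overnight, then exposed to compounds. Cell lysates were assayed for luciferase by luminometry, with results given as fold induction over 0.1% DMSO vehicle.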

Sequence of aryl hydrocarbon receptor (AhR) (P30561 10-805): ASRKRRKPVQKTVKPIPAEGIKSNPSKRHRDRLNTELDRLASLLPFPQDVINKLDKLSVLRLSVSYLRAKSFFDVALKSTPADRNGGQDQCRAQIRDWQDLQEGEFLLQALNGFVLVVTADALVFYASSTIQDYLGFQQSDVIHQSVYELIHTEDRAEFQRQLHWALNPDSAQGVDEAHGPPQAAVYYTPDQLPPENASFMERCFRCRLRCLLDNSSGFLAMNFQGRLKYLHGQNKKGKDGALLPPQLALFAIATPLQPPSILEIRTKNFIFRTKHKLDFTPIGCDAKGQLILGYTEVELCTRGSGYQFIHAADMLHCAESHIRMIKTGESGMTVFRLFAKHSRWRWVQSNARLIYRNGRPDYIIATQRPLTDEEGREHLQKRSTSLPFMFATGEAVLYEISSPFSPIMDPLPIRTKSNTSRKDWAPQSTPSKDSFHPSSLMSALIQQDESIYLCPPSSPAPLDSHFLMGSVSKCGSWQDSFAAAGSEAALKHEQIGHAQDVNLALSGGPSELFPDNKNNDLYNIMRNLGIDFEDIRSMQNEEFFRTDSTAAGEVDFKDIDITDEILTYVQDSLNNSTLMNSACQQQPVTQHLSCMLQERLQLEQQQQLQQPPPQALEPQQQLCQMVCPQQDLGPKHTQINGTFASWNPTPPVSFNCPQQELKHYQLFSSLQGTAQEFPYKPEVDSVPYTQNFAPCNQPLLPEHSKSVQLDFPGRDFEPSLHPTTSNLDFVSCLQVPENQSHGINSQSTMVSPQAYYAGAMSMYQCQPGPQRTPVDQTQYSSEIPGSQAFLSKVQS
Sequence of aryl hydrocarbon receptor (AhR) (P53762 whole entry partner): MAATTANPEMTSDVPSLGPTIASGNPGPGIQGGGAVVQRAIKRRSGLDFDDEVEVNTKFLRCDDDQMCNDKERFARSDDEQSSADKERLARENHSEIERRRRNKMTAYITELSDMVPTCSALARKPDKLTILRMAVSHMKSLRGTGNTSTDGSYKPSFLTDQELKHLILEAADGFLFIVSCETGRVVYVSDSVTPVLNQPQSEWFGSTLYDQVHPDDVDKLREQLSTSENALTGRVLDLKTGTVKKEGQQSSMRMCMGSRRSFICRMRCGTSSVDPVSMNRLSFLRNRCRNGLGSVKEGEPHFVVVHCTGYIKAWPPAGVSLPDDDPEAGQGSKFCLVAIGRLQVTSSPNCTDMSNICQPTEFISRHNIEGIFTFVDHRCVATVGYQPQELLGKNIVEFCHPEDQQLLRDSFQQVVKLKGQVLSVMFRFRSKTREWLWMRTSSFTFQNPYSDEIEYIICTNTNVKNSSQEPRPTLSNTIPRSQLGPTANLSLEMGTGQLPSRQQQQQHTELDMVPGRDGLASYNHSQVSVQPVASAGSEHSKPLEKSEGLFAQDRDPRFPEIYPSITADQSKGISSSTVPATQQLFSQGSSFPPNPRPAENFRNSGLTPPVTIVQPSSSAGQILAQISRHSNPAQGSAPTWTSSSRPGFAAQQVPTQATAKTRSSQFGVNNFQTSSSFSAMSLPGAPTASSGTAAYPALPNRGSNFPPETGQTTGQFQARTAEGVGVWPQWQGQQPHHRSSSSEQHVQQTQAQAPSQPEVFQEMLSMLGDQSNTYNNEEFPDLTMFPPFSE

Take `O=C(c1ccc2nc(-c3cccc4ccccc34)n(S(=O)(=O)c3cccc(F)c3)c2c1)N1CCCCC1` [Compound 1369]: the “Fold @ 1 nM” value came out at 1 fold, the “Fold @ 100 nM” value was 1 fold, the “Fold @ 10 uM” value is given as 2 fold and the “Fold relative to benchmark @ 100 nM” value is given as 0.03 fold.
On to `N#Cc1ccc(C(=O)c2c[nH]c3ccc(Cl)cc23)cc1` [Compound 874], for which the “Fold @ 1 nM” value is on record as 1 fold, the “Fold @ 100 nM” value stood at 7 fold, the “Fold @ 10 uM” value amounted to 52 fold and the “Fold relative to benchmark @ 100 nM” value was 0.13 fold.
Turning to `O=C(c1ccc(F)c(F)c1)n1c(-c2ccccc2-c2ccccc2)nc2cc(Cl)ccc21` [Compound 766], the “Fold @ 1 nM” value is reported as 1 fold, the “Fold @ 100 nM” value came out at 2 fold, the “Fold @ 10 uM” value came to 31 fold and the “Fold relative to benchmark @ 100 nM” value is 0.08 fold.
For the compound `O=C(c1ccc(F)c(F)c1)n1c(-c2c3ccccc3cc3ccccc23)nc2cc(Cl)ccc21` [Compound 641], the “Fold @ 1 nM” value is 1 fold, the “Fold @ 100 nM” value is on record as 1 fold, the “Fold @ 10 uM” value was found to be 21 fold and the “Fold relative to benchmark @ 100 nM” value was 0.11 fold.
`O=C(c1ccccc1)n1c(-c2ccc(F)c(Cl)c2)nc2cc(Cl)ccc21` [Compound 582]: the “Fold @ 1 nM” value turned out to be 1 fold, the “Fold @ 100 nM” value was found to be 1 fold, the “Fold @ 10 uM” value is 14 fold and the “Fold relative to benchmark @ 100 nM” value amounted to 0.07 fold.
With `COc1ccc(Cn2c(-c3cccc4ccccc34)nc3ccc(Cl)cc32)cc1` [Compound 853], the “Fold @ 1 nM” value came out at 1 fold, the “Fold @ 100 nM” value worked out at 1 fold, the “Fold @ 10 uM” value is reported as 11 fold and the “Fold relative to benchmark @ 100 nM” value is recorded as 0.03 fold.
Consider `Clc1ccc2c(c1)nc(-c1cccc3ccccc13)n2Cc1ccnc2ccccc12` [Compound 867], for which the “Fold @ 1 nM” value turned out to be 1 fold, the “Fold @ 100 nM” value came to 2 fold, the “Fold @ 10 uM” value was 32 fold and the “Fold relative to benchmark @ 100 nM” value is given as 0.07 fold.
With `Cc1ccc(S(=O)(=O)n2c(-c3cccc4ccccc34)nc3ccc(Cl)cc32)cc1` [Compound 528, 6-chloro-2-(naphthalen-1-yl)-1-tosyl-1H-benzo[d]imidazole], the “Fold @ 1 nM” value is listed as 1 fold, the “Fold @ 100 nM” value stood at 19 fold, the “Fold @ 10 uM” value is 35 fold and the “Fold relative to benchmark @ 100 nM” value is listed as 0.48 fold.
Consider `O=C(C1CCCCC1)n1c(-c2cccc3ccccc23)nc2cc(Cl)ccc21` [Compound 866], for which the “Fold @ 1 nM” value stood at 1 fold, the “Fold @ 100 nM” value is 34 fold, the “Fold @ 10 uM” value came to 50 fold and the “Fold relative to benchmark @ 100 nM” value is listed as 1.17 fold.
For the compound `COC(=O)c1ccc2nc(-c3cccc4ccccc34)n(S(=O)(=O)c3ccc(C#N)cc3)c2c1` [Compound 1362], the “Fold @ 1 nM” value was found to be 5 fold, the “Fold @ 100 nM” value is listed as 3 fold, the “Fold @ 10 uM” value was 18 fold and the “Fold relative to benchmark @ 100 nM” value is 0.1 fold.
The matching figures for `O=C(c1cc2cc(Cl)ccc2o1)c1cccc2ccccc12` [Compound 406, (5-chlorobenzofuran-2-yl)(naphthalen-1-yl)methanone]: 1 fold, 1 fold, 7.5 fold and 0.03 fold.
The matching figures for `O=C(c1ccc(F)c(F)c1)n1c(-c2ccc(F)c3ccccc23)nc2cc(Cl)ccc21` [Compound 792]: 1 fold, 2 fold, 19 fold and 0.08 fold.
The matching figures for `O=C(c1cccc2ccccc12)n1c(-c2ccccc2)nc2cc(Cl)ccc21` [Compound 490, (5-chloro-2-phenyl-1H-benzo[d]imidazol-1-yl)(naphthalen-1-yl)methanone]: 1 fold, 1 fold, 17 fold and 0.03 fold.
For the compound `Clc1ccc2c(c1)nc1n2Cc2ccccc2-1` [Compound 522, 7-chloro-11H-benzo[4,5]imidazo[2,1-a]isoindole], the “Fold @ 1 nM” value is 1 fold, the “Fold @ 100 nM” value is listed as 1 fold, the “Fold @ 10 uM” value is on record as 18 fold and the “Fold relative to benchmark @ 100 nM” value is 0.07 fold.
Consider `Clc1ccc2c(c1)nc(-c1cccc3ccccc13)n2Cc1ccccc1` [Compound 533, 1-benzyl-5-chloro-2-(naphthalen-1-yl)-1H-benzimidazole], for which the “Fold @ 1 nM” value came out at 1 fold, the “Fold @ 100 nM” value is 1 fold, the “Fold @ 10 uM” value was 13 fold and the “Fold relative to benchmark @ 100 nM” value worked out at 0.03 fold.
For `O=C(c1ccncc1)n1c(-c2ccccc2)nc2cc(Cl)ccc21` [Compound 432], the “Fold @ 1 nM” value amounted to 1 fold, the “Fold @ 100 nM” value is reported as 1 fold, the “Fold @ 10 uM” value was 7 fold and the “Fold relative to benchmark @ 100 nM” value worked out at 0.03 fold.
Regarding `O=C(c1ccccc1)n1c(-c2cccc3c2CCCC3)nc2ccc(Cl)cc21` [Compound 778], the “Fold @ 1 nM” value is on record as 1 fold, the “Fold @ 100 nM” value turned out to be 1 fold, the “Fold @ 10 uM” value turned out to be 8 fold and the “Fold relative to benchmark @ 100 nM” value came to 0.04 fold.
As for `O=C(c1cnc2ccccc2c1)n1c(-c2cccc3ccccc23)nc2cc(Cl)ccc21` [Compound 855], the “Fold @ 1 nM” value was 1 fold, the “Fold @ 100 nM” value worked out at 33 fold, the “Fold @ 10 uM” value is 44 fold and the “Fold relative to benchmark @ 100 nM” value was found to be 1.14 fold.
Regarding `Clc1ccc2nc(-c3cccc4ccccc34)n(Cc3ccncc3)c2c1` [Compound 877], the “Fold @ 1 nM” value is 1 fold, the “Fold @ 100 nM” value stood at 3 fold, the “Fold @ 10 uM” value came out at 42 fold and the “Fold relative to benchmark @ 100 nM” value is listed as 0.06 fold.
Turning to `O=C(c1ccc(F)c(F)c1)n1c(-c2csc3ccccc23)nc2cc(Cl)ccc21` [Compound 861], the “Fold @ 1 nM” value amounted to 1 fold, the “Fold @ 100 nM” value came out at 2 fold, the “Fold @ 10 uM” value is listed as 90 fold and the “Fold relative to benchmark @ 100 nM” value was determined as 0.07 fold.
The matching figures for `O=C(c1ccc(F)c(F)c1)n1c(-c2cccc3ccccc23)nc2cc(OC(F)(F)F)ccc21` [Compound 699]: 1 fold, 22 fold, 24 fold and 0.85 fold.
`O=C(c1ccc(OC(F)(F)F)cc1)n1c(-c2cccc3ccccc23)nc2cc(Cl)ccc21` [Compound 696]: the “Fold @ 1 nM” value is reported as 1 fold, the “Fold @ 100 nM” value is given as 22 fold, the “Fold @ 10 uM” value is recorded as 51 fold and the “Fold relative to benchmark @ 100 nM” value was found to be 0.85 fold.
For `O=C(c1ccc(F)cc1F)n1c(-c2cccc3ccccc23)nc2cc(Cl)ccc21` [Compound 694], in that order: 2 fold, 32 fold, 35 fold and 1.23 fold.
For `O=C(c1ccccc1)n1c(-c2ccc(F)cc2)nc2cc(Cl)ccc21` [Compound 492], in that order: 1 fold, 1 fold, 14 fold and 0.03 fold.
Consider `COC(=O)c1ccc2c(c1)nc(-c1cccc3ccccc13)n2Cc1ccc(Cl)cc1` [Compound 1406], for which the “Fold @ 1 nM” value came to 1 fold, the “Fold @ 100 nM” value was 1 fold, the “Fold @ 10 uM” value came out at 4 fold and the “Fold relative to benchmark @ 100 nM” value was 0.03 fold.
With `O=C(c1ccc(F)c(F)c1)n1c(-c2cccc3ccccc23)nc2cc(F)ccc21` [Compound 630], the “Fold @ 1 nM” value came out at 1 fold, the “Fold @ 100 nM” value is 5 fold, the “Fold @ 10 uM” value came to 9 fold and the “Fold relative to benchmark @ 100 nM” value is listed as 0.56 fold.
The matching figures for `O=C(c1ccc2c(c1)nc(-c1cccc3ccccc13)n2S(=O)(=O)c1ccc2ccccc2c1)N1CCOCC1` [Compound 1363]: 1 fold, 1 fold, 4 fold and 0.03 fold.
For `O=C(c1cccc2ccccc12)c1c[nH]c2cc(Cl)ccc12` [Compound 433], in that order: 1 fold, 1 fold, 7 fold and 0.03 fold.
For `O=C(c1ccc(F)c(F)c1)n1c(-c2ccc(Cl)c3ccccc23)nc2cc(Cl)ccc21` [Compound 869], in that order: 1 fold, 12 fold, 68 fold and 0.41 fold.
In the case of `COc1ccc(C(=O)n2c(-c3cc4ccccc4s3)nc3cc(F)ccc32)cc1` [Compound 634], the “Fold @ 1 nM” value came to 1 fold, the “Fold @ 100 nM” value is recorded as 2 fold, the “Fold @ 10 uM” value came out at 22 fold and the “Fold relative to benchmark @ 100 nM” value is on record as 0.22 fold.
For `N#Cc1ccc2c(c1)nc(-c1cccc3ccccc13)n2C(=O)c1ccccc1` [Compound 770], the “Fold @ 1 nM” value is 1 fold, the “Fold @ 100 nM” value is 2 fold, the “Fold @ 10 uM” value worked out at 2 fold and the “Fold relative to benchmark @ 100 nM” value is recorded as 0.08 fold.

For the origin of these results see patent US12473262B2, “Aryl hydrocarbon receptor activators” (Oregon State University, priority 2019, dated 2025).
